Holding throughout (test): Radioligand Binding Assay (Ki)
Test [1] deals with 5-hydroxytryptamine receptor 7 (Homo sapiens, UniProt P34969). The conditions noted are these: pH 7.4; 37 °C. The protocol:
(§1) Competition experiments were performed in the presence radioligand with membrane protein and test compounds. After incubation, the reaction stopped by rapid filtration onto a 96-well GF/B filter. Radioactivity retained on the filters was measured by liquid scintillation counting (Beckman LS 6500 apparatus). IC50 values for test compounds were determined from nonlinear regression analysis of data collected from ligand binding experiments. The inhibition constant (Ki) was calculated from IC50 value by the Cheng and Prusoff equation.

In another test the target is D(2) dopamine receptor (Rattus norvegicus, UniProt P61169). The method, then:
as §1

Test [2] concerns the target T1, 5-hydroxytryptamine receptor 1A (Rattus norvegicus, UniProt P19327).
T1 sequence (P19327 whole entry): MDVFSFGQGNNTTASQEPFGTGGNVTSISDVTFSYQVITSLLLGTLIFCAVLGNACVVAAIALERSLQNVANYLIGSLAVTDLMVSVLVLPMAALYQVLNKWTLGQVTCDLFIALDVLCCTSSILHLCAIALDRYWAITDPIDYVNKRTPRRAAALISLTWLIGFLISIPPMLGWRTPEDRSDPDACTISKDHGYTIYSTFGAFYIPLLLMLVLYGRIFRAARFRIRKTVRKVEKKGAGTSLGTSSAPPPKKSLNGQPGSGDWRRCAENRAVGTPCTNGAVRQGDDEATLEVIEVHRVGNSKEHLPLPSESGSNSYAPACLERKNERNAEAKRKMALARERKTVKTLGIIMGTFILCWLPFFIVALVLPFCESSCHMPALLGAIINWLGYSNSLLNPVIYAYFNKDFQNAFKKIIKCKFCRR
The conditions noted are these: pH 7.4; 37 °C. The protocol: as §1

Test [3] deals with T2, Alpha-1B adrenergic receptor (Rattus norvegicus, UniProt P15823).
T2 sequence (P15823 whole entry): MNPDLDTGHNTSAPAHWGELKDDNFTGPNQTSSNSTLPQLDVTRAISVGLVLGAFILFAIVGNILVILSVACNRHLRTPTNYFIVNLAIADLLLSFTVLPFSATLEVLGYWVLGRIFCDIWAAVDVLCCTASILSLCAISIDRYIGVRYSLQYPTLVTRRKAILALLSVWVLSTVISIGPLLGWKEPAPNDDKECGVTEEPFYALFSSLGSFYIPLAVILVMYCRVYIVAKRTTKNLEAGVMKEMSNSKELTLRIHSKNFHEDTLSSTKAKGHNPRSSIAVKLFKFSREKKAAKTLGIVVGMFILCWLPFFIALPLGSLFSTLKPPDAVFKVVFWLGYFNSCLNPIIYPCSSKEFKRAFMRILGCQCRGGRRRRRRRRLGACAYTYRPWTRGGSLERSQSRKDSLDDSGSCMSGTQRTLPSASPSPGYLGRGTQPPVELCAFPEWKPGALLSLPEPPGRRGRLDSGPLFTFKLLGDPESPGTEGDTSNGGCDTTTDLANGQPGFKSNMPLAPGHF
The method, then:
as §1

Chain of D(2) dopamine receptor (P61169 whole entry): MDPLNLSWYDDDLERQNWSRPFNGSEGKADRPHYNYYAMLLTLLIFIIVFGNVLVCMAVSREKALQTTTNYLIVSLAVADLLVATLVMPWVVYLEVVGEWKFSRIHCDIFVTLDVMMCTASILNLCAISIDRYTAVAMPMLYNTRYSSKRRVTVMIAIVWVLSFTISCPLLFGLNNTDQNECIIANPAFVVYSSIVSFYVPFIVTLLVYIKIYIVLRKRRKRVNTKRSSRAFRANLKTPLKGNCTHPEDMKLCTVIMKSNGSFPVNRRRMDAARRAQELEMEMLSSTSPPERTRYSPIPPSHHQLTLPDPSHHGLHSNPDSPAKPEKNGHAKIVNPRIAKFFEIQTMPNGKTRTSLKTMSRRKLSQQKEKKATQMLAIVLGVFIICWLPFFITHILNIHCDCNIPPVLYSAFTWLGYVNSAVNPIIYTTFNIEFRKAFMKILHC
Chain of 5-hydroxytryptamine receptor 7 (P34969 whole entry): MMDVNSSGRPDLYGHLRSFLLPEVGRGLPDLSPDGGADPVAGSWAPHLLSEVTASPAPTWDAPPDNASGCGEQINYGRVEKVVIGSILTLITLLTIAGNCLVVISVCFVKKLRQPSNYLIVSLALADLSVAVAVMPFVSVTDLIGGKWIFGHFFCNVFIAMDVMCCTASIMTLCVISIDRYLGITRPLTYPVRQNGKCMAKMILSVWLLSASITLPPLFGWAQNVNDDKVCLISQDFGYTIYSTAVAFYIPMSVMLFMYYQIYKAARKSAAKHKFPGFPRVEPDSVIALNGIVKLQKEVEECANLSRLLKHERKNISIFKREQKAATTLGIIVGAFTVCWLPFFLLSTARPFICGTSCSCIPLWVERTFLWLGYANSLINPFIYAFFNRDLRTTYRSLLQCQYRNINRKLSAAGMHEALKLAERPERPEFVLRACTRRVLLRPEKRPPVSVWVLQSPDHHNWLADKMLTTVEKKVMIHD

With `O=C1CCC(=O)N1C1CCC(N2CCN(c3cccc(C(F)(F)F)c3)CC2)CC1` (centres undefined) [1-(m-trifluorophenyl)piperazine, 4], the inhibition constant (Ki) in test [1] was 1820 nM; on D(2) dopamine receptor, above 25000 nM; in test [2], 4 nM; in test [3], 505 nM.

Usually Ki stands for a measure of affinity in units of concentration, obtained from inhibition or displacement. A low value points to higher affinity.

These data come from BindingDB's records for doi:10.1016/j.bmc.2007.07.029 (Polish Academy of Sciences, 2007).
